Measured values as given in patent US20220041559A1, “BENZO-AND PYRIDO-PYRAZOLES AS PROTEIN KINASE INHIBITORS” (ROTTAPHARM BIOTECH S.R.L., priority 2019, published 2022).

Key:
EGFR = EGFR (Homo sapiens, UniProt P00533); experiment: Inhibition of EGF-induced EGFR (Y1068)-phosphorylation (cell-based assay, U87MG); set-up: endogenous in cells; host or cells: U87MG; settings: EGF 10 ng/ml, Western blot
Procedure: U87MG cells (Uppsala 87 Malignant Glioma, a human glioblastoma cell line from ATCC) were plated at 3×10^5 cells/well in 12 w microplates and grown adherent in medium DMEM+10% FBS at 37° C. with 5% CO2. After 24 h, medium was removed and starvation was induced overnight in medium DMEM+0.1% FBS (medium starvation). At the end of incubation, treatment of cells was performed by medium replacement and by adding fresh medium containing or not diluent or test compounds (DMSO 0.1% final concentration) diluted in medium starvation. After 1 hour, EGF stimuli (diluted in medium starvation, 10 ng/ml final concentration) was added to each sample, with the exception of basal sample; plate was then incubated for 15 min at 37° C. with 5% CO2. At the end of the incubation, the medium was removed and cellular lysates were obtained by adding M-PER lysis buffer containing 1× Protease/Phosphatase inhibitors cocktail. Then, lysates were transferred into Eppendorf tubes, sonicated and stored at −80° C.
Protein content was measured by Bradford method. Lysates were analyzed by Western blot for EGFR phosphorylation (Tyrosine 1068) and total receptor amount determination. Densitometric analysis of sample lanes were performed by ImageQuant TL software (GE Healthcare Life Sciences). […]

VEGFR = biological target: T1, VEGFR (Homo sapiens, UniProt P35968); experiment: Inhibition of VEGF-induced VEGFR (Y1175)-phosphorylation (cell-based assay, HUVEC-C); settings: VEGF 50 ng/ml, Western blot
T1 construct: endogenous in cells; host or cells: HUVEC-C
Procedure: HUVEC-C cells (Human Umbilical Vein Endothelial Cells from ATCC) were plated at 6×10^4 cells/well in 24 w microplates and grown adherent in medium F12K+0.1 mg/ml Heparin+0.05 mg/ml ECGS+10% FBS at 37° C. with 5% CO2. After 24 h, medium was removed and starvation was induced overnight in medium F12K+0.1 mg/ml Heparin+0.5% FBS (medium starvation). At the end of incubation, treatment of cells was performed by medium replacement and by adding fresh medium containing or not diluent or test compounds (DMSO 0.1% final concentration) diluted in medium starvation. After 1 hour, VEGF stimuli (diluted in medium starvation, 50 ng/ml final concentration) was added to each sample, with the exception of basal sample; plate was then incubated for 5 min at 37° C. with 5% CO2. At the end of the incubation, the medium was removed and cellular lysates were obtained by adding M-PER lysis buffer containing 1× Protease/Phosphatase inhibitors cocktail. Then, lysates were transferred into Eppendorf tubes, sonicated and stored at −80° C.
Lysates were analyzed by Western blot for VEGFR phosphorylation (Tyrosine 1175) and total receptor amount determination. Densitometric analysis of sample lanes were performed by ImageQuant TL software (GE Healthcare Life Sciences). […]

T1 sequence (P35968 20-1356): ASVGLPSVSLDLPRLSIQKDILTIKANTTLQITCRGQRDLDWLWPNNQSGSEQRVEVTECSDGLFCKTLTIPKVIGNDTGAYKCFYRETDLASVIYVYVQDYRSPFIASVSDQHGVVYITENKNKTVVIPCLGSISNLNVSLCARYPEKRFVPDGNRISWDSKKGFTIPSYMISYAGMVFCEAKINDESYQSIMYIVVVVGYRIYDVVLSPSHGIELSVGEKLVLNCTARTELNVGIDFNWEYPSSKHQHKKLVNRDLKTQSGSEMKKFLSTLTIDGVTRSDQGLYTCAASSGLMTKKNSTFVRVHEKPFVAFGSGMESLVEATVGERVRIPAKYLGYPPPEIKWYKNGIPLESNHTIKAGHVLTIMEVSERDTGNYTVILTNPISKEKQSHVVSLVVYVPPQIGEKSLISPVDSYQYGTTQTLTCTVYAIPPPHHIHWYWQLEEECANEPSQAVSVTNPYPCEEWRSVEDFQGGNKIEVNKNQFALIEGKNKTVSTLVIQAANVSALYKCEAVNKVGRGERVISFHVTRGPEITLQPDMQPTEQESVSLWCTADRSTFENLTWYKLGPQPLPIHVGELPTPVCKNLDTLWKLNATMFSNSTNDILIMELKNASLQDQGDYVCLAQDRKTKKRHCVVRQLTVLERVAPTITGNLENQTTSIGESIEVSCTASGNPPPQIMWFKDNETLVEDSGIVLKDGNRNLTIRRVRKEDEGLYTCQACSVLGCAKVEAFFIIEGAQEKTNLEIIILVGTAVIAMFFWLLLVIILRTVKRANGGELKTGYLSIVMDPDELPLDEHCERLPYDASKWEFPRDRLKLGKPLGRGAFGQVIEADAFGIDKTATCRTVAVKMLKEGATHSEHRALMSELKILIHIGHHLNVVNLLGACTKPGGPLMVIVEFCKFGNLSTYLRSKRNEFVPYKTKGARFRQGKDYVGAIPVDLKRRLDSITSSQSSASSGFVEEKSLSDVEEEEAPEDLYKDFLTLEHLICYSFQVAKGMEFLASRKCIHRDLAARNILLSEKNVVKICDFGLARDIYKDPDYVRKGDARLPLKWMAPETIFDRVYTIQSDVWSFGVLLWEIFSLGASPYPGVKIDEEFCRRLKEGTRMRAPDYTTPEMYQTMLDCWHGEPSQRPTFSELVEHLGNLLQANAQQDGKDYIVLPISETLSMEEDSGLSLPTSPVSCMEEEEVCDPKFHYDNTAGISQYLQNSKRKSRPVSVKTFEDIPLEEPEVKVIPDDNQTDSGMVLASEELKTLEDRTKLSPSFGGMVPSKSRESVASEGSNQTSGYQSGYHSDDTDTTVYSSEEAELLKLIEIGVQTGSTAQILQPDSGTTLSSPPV
Chain of EGFR (P00533 25-1210): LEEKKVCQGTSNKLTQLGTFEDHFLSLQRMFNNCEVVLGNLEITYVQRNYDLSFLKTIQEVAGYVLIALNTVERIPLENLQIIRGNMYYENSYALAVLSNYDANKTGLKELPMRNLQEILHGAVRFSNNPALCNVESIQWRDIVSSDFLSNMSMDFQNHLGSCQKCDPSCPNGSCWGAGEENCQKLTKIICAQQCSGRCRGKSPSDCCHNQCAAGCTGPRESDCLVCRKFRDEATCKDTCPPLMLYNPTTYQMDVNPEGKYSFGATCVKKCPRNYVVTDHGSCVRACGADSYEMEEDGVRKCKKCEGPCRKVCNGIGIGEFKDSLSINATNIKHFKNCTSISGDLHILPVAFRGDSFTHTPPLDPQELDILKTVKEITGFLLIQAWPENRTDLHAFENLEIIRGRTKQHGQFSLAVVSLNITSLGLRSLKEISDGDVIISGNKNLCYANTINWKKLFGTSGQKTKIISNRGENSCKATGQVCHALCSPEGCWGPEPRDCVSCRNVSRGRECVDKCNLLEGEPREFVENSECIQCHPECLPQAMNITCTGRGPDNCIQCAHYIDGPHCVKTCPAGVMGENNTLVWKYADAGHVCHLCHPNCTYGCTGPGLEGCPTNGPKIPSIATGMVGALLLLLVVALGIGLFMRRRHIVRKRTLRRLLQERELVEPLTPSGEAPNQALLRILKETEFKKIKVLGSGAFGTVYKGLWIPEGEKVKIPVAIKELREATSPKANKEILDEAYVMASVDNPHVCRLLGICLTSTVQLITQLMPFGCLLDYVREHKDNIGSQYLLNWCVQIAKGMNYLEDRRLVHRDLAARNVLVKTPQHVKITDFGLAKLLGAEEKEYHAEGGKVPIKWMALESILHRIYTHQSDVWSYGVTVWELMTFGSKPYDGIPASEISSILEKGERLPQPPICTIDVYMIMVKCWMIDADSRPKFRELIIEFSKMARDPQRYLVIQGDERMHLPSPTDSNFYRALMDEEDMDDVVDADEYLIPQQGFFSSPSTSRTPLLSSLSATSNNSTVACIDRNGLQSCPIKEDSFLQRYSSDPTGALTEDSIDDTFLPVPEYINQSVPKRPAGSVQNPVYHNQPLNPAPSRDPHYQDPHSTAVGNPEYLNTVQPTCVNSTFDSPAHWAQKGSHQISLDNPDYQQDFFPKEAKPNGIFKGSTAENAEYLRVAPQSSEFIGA

With `CN1CCC(c2ccc(C(=O)Nc3n[nH]c4nc(Nc5ccccc5F)ccc34)cc2)CC1` [Compound 5, N-(6-((2-fluorophenyl)amino)-1H-pyrazolo[3,4-b]pyridin-3-yl)-4-(1-methylpiperidin-4-yl)benzamide] the IC50 (EGFR) was 3 µM and the “Concentration from which maximal inhibitory activity on VEGFR-phosphorylation is shown” value (VEGFR) was at least 1 µM.
